Where “and” joins values, the source holds several entries; their conditions need not be identical. Equal entries are not always repeated.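 These data come from cells grown in 96-well plates and exposed to compound for 48 hours at five concentrations. Abbreviation: GI50, concentration required for 50% inhibition of growth. The concentration for full growth arrest is given as TGI.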
Legend:
Assay in all cases: NCI tumour cell line growth inhibition, 48 h
NCI-H522 lung = system: NCI-H522 lung
A498 renal = system: A498 renal
CAKI-1 renal = system: CAKI-1 renal
HCT-116 colon = system: HCT-116 colon
COLO 205 colon = system: COLO 205 colon
IGROV1 ovarian = system: IGROV1 ovarian
UACC-257 melanoma = system: UACC-257 melanoma
MCF7 breast = system: MCF7 breast
PC-3 prostate = system: PC-3 prostate
HOP-62 NSCLC = system: HOP-62 NSCLC

Row | Structure (SMILES) | GI50 (NCI-H522 lung) | TGI (NCI-H522 lung) | GI50 (A498 renal) | TGI (A498 renal) | GI50 (CAKI-1 renal) | TGI (CAKI-1 renal) | GI50 (HCT-116 colon) | TGI (HCT-116 colon) | GI50 (COLO 205 colon) | TGI (COLO 205 colon) | GI50 (IGROV1 ovarian) | TGI (IGROV1 ovarian) | GI50 (UACC-257 melanoma) | TGI (UACC-257 melanoma) | GI50 (MCF7 breast) | TGI (MCF7 breast) | GI50 (PC-3 prostate) | TGI (PC-3 prostate) | GI50 (HOP-62 NSCLC) | TGI (HOP-62 NSCLC)
1 | CC1(C)[C@@H](OC(N)=O)[C@H]2O[C@H]2[C@]2(C=O)[C@H]3CC[C@]4(C)[C@@H](c5ccc(=O)oc5)[C@@H](Cl)C[C@]4(O)C3=CC[C@@H]12 | 0.0035 µM | 0.0104 µM | 0.00683 µM | 0.0222 µM | 0.00448 µM | 0.00859 µM | 0.00435 µM | 0.00853 µM | 0.00731 µM | 0.0199 µM | 0.00836 µM | 0.0362 µM | 0.0059 µM | 0.0164 µM | 0.00724 µM | 0.0281 µM | 0.00667 µM | 0.0188 µM | 0.00399 µM | 0.00785 µM
2 | O=C1CSC(c2ccc(Cl)cc2Cl)N1c1ccc(F)cc1 (stereo unspecified) | 15.1 µM | 31.1 µM | 15.9 µM | 29.8 µM | 24.9 µM | 42.7 µM | 16.7 µM | 30.3 µM | – | – | 16.1 µM | 33.1 µM | 20.1 µM | 36.5 µM | 14 µM | 27 µM | 18.5 µM | 35.5 µM | 18 µM | 32.3 µM
3 | CCc1nc(C(N)=O)c(Nc2ccc(N3CCC(N4CCN(C)CC4)CC3)c(OC)c2)nc1NC1CCOCC1 | 4.96 µM and 0.763 µM and 6.27 µM | 21.7 µM and > 2.52 µM and 23.9 µM | 0.96 µM and 0.165 µM and 0.931 µM | 4.41 µM and 0.6 µM and 4.9 µM | 1.24 µM and 0.236 µM and 1.21 µM | 12.9 µM and > 10 µM and 13.4 µM | 1.39 µM and 0.34 µM and 1.23 µM | 14.1 µM and > 10 µM and 14.9 µM | 1.55 µM and 0.281 µM and 1.57 µM | 9.65 µM and > 1.98 µM and 14.2 µM | 0.876 µM and 0.279 µM and 0.79 µM | 8.09 µM and > 10 µM and 8.12 µM | – | 24.5 µM and > 10 µM and 24.3 µM | 0.672 µM and 0.258 µM and 0.493 µM | 17.2 µM and > 10 µM and 17.7 µM | – | 25.7 µM and > 10 µM and 26 µM | 1.26 µM and 0.238 µM and 1.2 µM | 16.3 µM and > 2.98 µM and 17.6 µM
4 | COc1cccc2c(=O)c3c(sc12)c(N1CCNCC1)nc1ccccc13 | 1.79 µM | 3.69 µM | 1.69 µM | 3.14 µM | 1.64 µM | 3.01 µM | 1.55 µM | 3.28 µM | 2.07 µM | 4.72 µM | 1.41 µM | 2.88 µM | 2.09 µM | 4.45 µM | 1.57 µM | 3.28 µM | 1.62 µM | 3.28 µM | 1.87 µM | 4.3 µM
5 | CCn1c(SCc2ccc(C)cc2)nnc1-c1nn(-c2ccc(Cl)cc2Cl)c(-c2ccc(Cl)cc2)c1C | 1.35 µM | 5.2 µM | 1.37 µM | 7.88 µM | 2.83 µM | 12.6 µM | 0.573 µM | 10.6 µM | 1.51 µM | 3.39 µM | 2.62 µM | 15.4 µM | – | – | 2.26 µM | 11.4 µM | 0.49 µM | 10.4 µM | 2.73 µM | 11.9 µM
6 | CCCCON(OC(=O)c1ccc2ccc3cccc4ccc1c2c34)C(C)=O | 19.4 µM | 45.7 µM | 27.7 µM | 85.8 µM | 14.4 µM | 32.6 µM | 22.4 µM | 52.3 µM | 24.9 µM | 98.9 µM | 16.5 µM | 55.2 µM | 60.3 µM | > 100 µM | 26.3 µM | 68.9 µM | 22.2 µM | 56.7 µM | 24 µM | 60.1 µM
7 | C=C1C(=O)OC2/C=C(\COC(C)=O)CCC(OC(C)=O)C3=CC(OC3=O)C12 (stereo unspecified) | – | 1.14 µM | – | 34.1 µM | – | 10.1 µM | – | 6.85 µM | – | 6.54 µM | – | > 56.3 µM | – | 6.65 µM | – | 15.5 µM | – | 30.5 µM | – | 38.8 µM
8 | COc1cc2[nH]c(C(=O)c3cc(OC)c(OC)c(OC)c3)c(N)c2cc1C#CC1CC1 | – | – | 3.23 µM | 61.1 µM | 2.54 µM | > 100 µM | 2.06 µM | 85.3 µM | 2.4 µM | 8.34 µM | 6.01 µM | > 100 µM | > 100 µM | > 100 µM | 1.85 µM | > 100 µM | 2.21 µM | > 100 µM | 2.64 µM | > 100 µM
9 | O=C(O)C1C(Br)(c2ccccc2)C1(Br)c1ccccc1 (stereo unspecified) | – | 43.9 µM | – | 83.8 µM | – | 81.9 µM | – | > 100 µM | – | 37.8 µM | – | > 100 µM | – | > 100 µM | – | > 100 µM | – | > 100 µM | – | > 100 µM
10 | ClCC[N+]12CC[N+](CCCl)(CC1)C2 | – | > 100 µM | – | > 100 µM | – | > 100 µM | – | > 100 µM | – | > 100 µM | – | > 100 µM | – | > 100 µM | – | > 100 µM | – | > 100 µM | – | > 100 µM
11 | CC/C=C\C[C@H]1C/C=C2/C(=O)C=C[C@@H]2C/C=C\CCCC(=O)O1 | 0.57 µM | 2.45 µM | 1.82 µM | 3.35 µM | 1.05 µM | 8.98 µM | 0.218 µM | 0.511 µM | 0.708 µM | 2.64 µM | 1.69 µM | 4.28 µM | 1.78 µM | 5.23 µM | 0.395 µM | 8.06 µM | 1.31 µM | 3.73 µM | 1.81 µM | 5.39 µM
12 | CC1=C(O)C(=O)C=C2C1=CC=C1[C@@]2(C)CC[C@@]2(C)[C@@H]3C[C@](C)(C(=O)O)CC[C@]3(C)CC[C@]12C | – | 0.0389 µM | – | 0.142 µM | – | 0.0375 µM | – | 0.0637 µM | – | 0.041 µM | – | 0.0428 µM | – | 0.1 µM | – | 0.266 µM | – | 0.185 µM | – | 0.963 µM
13 | Clc1ccc(C=Nc2ccc3c(c2)Cc2ccccc2-3)c(Cl)c1 | – | > 100 µM | – | > 100 µM | – | > 100 µM | – | > 100 µM | – | > 100 µM | – | > 100 µM | – | > 100 µM | – | > 100 µM | – | > 100 µM | – | > 100 µM
14 | O=C1Nc2ccc(F)cc2/C1=C/c1ccc[nH]1 | > 25 µM | > 25 µM | > 25 µM | > 25 µM | 8.03 µM | > 25 µM | > 23.7 µM | > 25 µM | > 25 µM | > 25 µM | 13.4 µM | > 25 µM | > 25 µM | > 25 µM | 1.06 µM | > 25 µM | > 25 µM | > 25 µM | > 25 µM | > 25 µM
15 | Nc1nc(F)nc2c1ncn2C1OC(CO)C(O)C1O (stereo unspecified) | 18.4 µM | > 100 µM | > 100 µM | > 100 µM | 6.25 µM | > 96.2 µM | 19.4 µM | > 100 µM | 27.8 µM | > 100 µM | 74.1 µM | > 100 µM | – | > 100 µM | 26.3 µM | > 100 µM | 41.6 µM | > 100 µM | 13.6 µM | > 79.6 µM
